Measured values taken from patent publication US12247032B2, “Substituted pyrazolo[1,5-a]pyrimidines as inhibitors of JAK kinases” (Genentech, Inc., priority 2019, dated 2025).

Legend:
[1] = test system: JAK1 (IL-13-stimulated STAT6 phosphorylation in BEAS-2B cells); assay: P-STAT6 BEAS-2B+IL-13 cell assay; type: cell-based, human; settings: Homo sapiens, BEAS-2B, 1 h, 1 hour compound, IL-13 15 minutes, IC50 by four-parameter fit, read-out: Cellular JAK1 PSTAT6 BEAS2B + IL13
In short: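 BEAS-2B human bronchial epithelial cells preincubated 1 h at 37 °C with compound, then stimulated with human recombinant IL-13 for 15 min. Phospho-STAT6 (Tyr641) in lysates measured by MSD electrochemiluminescence immunoassay; IC50 from a four-parameter logistic fit of percent of control.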

[2] = target: T1, recombinant human JAK1 kinase domain protein (Residues 854-1154) (Homo sapiens, UniProt P23458); assay: JAK1 biochemical assay (microfluidic mobility shift, peptide phosphorylation); settings: 25 μM ATP, 1 nM total JAK1; Ki calculated from Ki app (tight-binding, competitive); read-out: Biochem JAK1 Ki
T1 construct: human JAK1 kinase domain protein (Residues 854-1154); purchased Proteros Biostructures GmbH (Martinsried, Germany); host or cells: insect cells
T1 sequence (P23458 854-1154): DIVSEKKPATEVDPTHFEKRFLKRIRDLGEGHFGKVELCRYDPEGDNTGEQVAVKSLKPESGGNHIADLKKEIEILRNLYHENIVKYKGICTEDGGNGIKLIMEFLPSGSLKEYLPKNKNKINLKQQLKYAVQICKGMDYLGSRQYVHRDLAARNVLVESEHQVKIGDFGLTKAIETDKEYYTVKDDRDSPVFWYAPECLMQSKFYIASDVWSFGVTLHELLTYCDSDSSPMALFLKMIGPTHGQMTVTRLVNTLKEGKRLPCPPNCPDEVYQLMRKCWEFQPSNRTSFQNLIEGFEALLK
In short: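 Insect-cell-expressed human JAK1 (1 nM, residues 854-1154) or JAK2 (0.2 nM, residues 812-1132) phosphorylating 1.5 μM 5-FAM peptide Y-1B with 25 μM ATP, pH 7.2 HEPES, 30 min at 22-23 °C; twelve concentrations up to 1000 nM in duplicate. Mobility-shift % conversion fitted to tight-binding quadratic for Ki^app.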

Compound	Ki [2] [nM]	IC50 [1] [nM]
CN1CCC(n2nnnc2Cn2cc(NC(=O)c3cnn4cccnc34)c(-c3cc(OC(F)F)ccc3OC(F)F)n2)C1 (stereo not shown) [Example 26, N-[3-[2,5-bis(difluoromethoxy)phenyl]-1-[[1-(1-methylpyrrolidin-3-yl)tetrazol-5-yl]methyl]pyrazol-4-yl]pyrazolo[1,5-a]pyrimidine-3-carboxamide]	0.51	16
CN(CCN1CC(n2nnc(Cn3cc(NC(=O)c4cnn5cccnc45)c(-c4cc(OC(F)F)ccc4OC(F)F)n3)n2)C1)C(=O)OC(C)(C)C [Example 31, tert-butyl N-[2-[3-[5-[[3-[2,5-bis(difluoromethoxy)phenyl]-4-(pyrazolo[1,5-a]pyrimidine-3-carbonylamino)pyrazol-1-yl]methyl]tetrazol-2-yl]azetidin-1-yl]ethyl]-N-methyl-carbamate]	0.34	22
CN(C)CCN1CC(n2nnc(Cn3cc(NC(=O)c4cnn5cccnc45)c(-c4cc(Cl)ccc4OC(F)F)n3)n2)C1 [Example 37, N-[3-[5-chloro-2-(difluoromethoxy)phenyl]-1-[[2-[1-[2-(dimethylamino)ethyl]azetidin-3-yl]tetrazol-5-yl]methyl]pyrazol-4-yl]pyrazolo[1,5-a]pyrimidine-3-carboxamide]	0.48	16
CN1CCC(N2CC(n3nnc(Cn4cc(NC(=O)c5cnn6cccnc56)c(-c5cc(OC(F)F)ccc5OC(F)F)n4)n3)C2)CC1 [Example 38, N-[3-[2,5-bis(difluoromethoxy)phenyl]-1-[[2-[1-(1-methyl-4-piperidyl)azetidin-3-yl]tetrazol-5-yl]methyl]pyrazol-4-yl]pyrazolo[1,5-a]pyrimidine-3-carboxamide]	0.48	18
CSc1ccc(OC(F)F)c(-c2nn(Cc3nnn(C4CN(CCCN(C)C)C4)n3)cc2NC(=O)c2cnn3cccnc23)c1 [Example 58, N-[3-[2-(difluoromethoxy)-5-methylsulfanyl-phenyl]-1-[[2-[1-[3-(dimethylamino)propyl]azetidin-3-yl]tetrazol-5-yl]methyl]pyrazol-4-yl]pyrazolo[1,5-a]pyrimidine-3-carboxamide]	0.41	57

Now from value to compound, other results behind:

Ki [2] [nM]	Compound	IC50 [1] [nM]
0.63	CN(C)CCN1CCC(n2nnc(Cn3cc(NC(=O)c4cnn5cccnc45)c(-c4cc(OC(F)F)ccc4OC(F)F)n3)n2)CC1 [Example 61, N-[3-[2,5-bis(difluoromethoxy)phenyl]-1-[[2-[1-[2-(dimethylamino)ethyl]-4-piperidyl]tetrazol-5-yl]methyl]pyrazol-4-yl]pyrazolo[1,5-a]pyrimidine-3-carboxamide]	32
0.64	CN(C)[C@H]1C[C@H](N2CC(n3nnc(Cn4cc(NC(=O)c5cnn6cccnc56)c(-c5cc(OC(F)F)ccc5OC(F)F)n4)n3)C2)C1 [Example 70, N-[3-[2,5-bis(difluoromethoxy)phenyl]-1-[[2-[1-[3-(dimethylamino)cyclobutyl]azetidin-3-yl]tetrazol-5-yl]methyl]pyrazol-4-yl]pyrazolo[1,5-a]pyrimidine-3-carboxamide]	27
0.44	CN1CC(N2CC(n3nnc(Cn4cc(NC(=O)c5cnn6cccnc56)c(-c5cc(OC(F)F)ccc5OC(F)F)n4)n3)C2)C1 [Example 78, N-[3-[2,5-bis(difluoromethoxy)phenyl]-1-[[2-[1-(1-methylazetidin-3-yl)azetidin-3-yl]tetrazol-5-yl]methyl]pyrazol-4-yl]pyrazolo[1,5-a]pyrimidine-3-carboxamide; formic acid]	40
